US6620803B2, “Cosmetic or dermatological use of 7-hydroxylated steroids” (Vitasterol SARL, priority 1997, dated 2003)

Key:
[1] = test system: human keratinocytes; test: Viability of human keratinocytes in culture (MTT test); assay type: cell-based; conditions: concentrations tested 10^−4 M to 10^−8 M
Protocol: (§1) Human keratinocyzes are obtained from parts removed by surgery and are cultured in a monolayer to preconfluence. 7α-Hydroxy-DHEA is administered to these cultures at various concentrations in ethanolic solution (10%), each concentration being tested eight times. Controls are carried out with ethanol alone (10%). After 24 hours, the viability of the keratinocytes is measured by testing with MTT (3-(4,5-dimethylthiazol-2-yl)-2,5-diphenyltetrazolium bromide) where the mitochondrial dehydrogenase succinate transforms the MTT into blue crystals of formazan which are soluble in DMSO (Mosmann, J. Immunol. Methods 65: 55-63, 1983). The cell viability is calculated according to the formula:
(§2) Any value greater than 100 indicates a product favoring cell viability.

[2] = as above; assay type: cell-based; conditions: human, primary human keratinocytes in monolayer culture
Protocol: as §1, §2

[3] = test system: thymocytes of C57BL/6 mice (mouse T cells); test: Cell apoptosis induced by glucocorticoids in cultured mouse thymocytes (flow cytometry, propidium iodide); assay type: cell-based, mouse (C57BL/6)
Protocol: The thymus of C57BL/6 mice aged 4 weeks is removed. Culturing of the thymocytes is carried out for 6 hours in RPMI 1640 medium and in the presence or in the absence of the steroid tested. Apoptosis (fragmentation of the DNA) is measured by flow cytometry after labeling with propidium iodide. The apoptotic phenomenon is checked by electrophoresis of the DNA, which is visualized by ethidium bromide according to the conventional technique (observation of ranges of 200 base pairs).

[4] = test system: human keratinocytes; test: Anti-free radical effect on UVA-irradiated suspension of human keratinocytes (lipid peroxides by chemiluminescence); assay type: cell-based; conditions: 10^−6 M, calculated on nonirradiated controls and reference of protection
Protocol: Keratinocytes originating from a healthy donor are cultured to the subconfluent stage in medium (KGM) which is specific for the proliferation of the keratinocytes. The suspensions obtained are divided in triplicate into 4 series of which 3 are irradiated for 30 min with a lamp emitting UVA in order to activate the production of free radicals. Among the three irradiated series, one contains the vitamins C+E (0.7%) and serves as a reference of protection, one contains 7α-hydroxy-DHEA at 10^−6M and the last serves as a control.
The free radicals produced generate lipid peroxides which are determined by chemiluminescence (Belghmi et al. J. Biolum. Chemilum. 2: 113-119, 1982). The efficacy of 7α-hydroxy-DHEA is calculated on the basis of nonirradiated controls and of the reference of protection.

[5] = steroid 10^−5 M together with Dexamethasone 10^−5 M, 6 hours, dexamethasone alone 73.5
[6] = steroid 10^−6 M together with Dexamethasone 10^−6 M, 6 hours, dexamethasone alone 72.7

For `C[C@]12CC[C@H](O)CC1=C[C@@H](O)[C@@H]1[C@@H]2CC[C@]2(C)C(=O)CC[C@@H]12` [7α-hydroxy-DHEA, 3β,7α-dihydroxy-5-androsten-17-one], the Cytotoxicity on keratinocytes [1] was “no cytotoxicity was observed”, the viability at 24 h ([2]; 5.10^−5 M, 24 hours, control 100) was 111 ± 7% and the viability at 24 h ([2]; 5.10^−6 M, 24 hours, control 100) was 147 ± 9%. For the same molecule, the viability at 24 h ([2]; 5.10^−7 M, 24 hours, control 100) was 139 ± 3%, the viability at 24 h ([2]; 10^−4 M, 24 hours, control 100) was 124 ± 10% and the viability at 24 h ([2]; 10^−5 M, 24 hours, control 100) was 119 ± 7%. For the same molecule, the viability at 24 h ([2]; 10^−6 M, 24 hours, control 100) was 154 ± 6%, the viability at 24 h ([2]; 10^−7 M, 24 hours, control 100) was 147 ± 5% and the viability at 24 h ([2]; 10^−8 M, 24 hours, control 100) was 127 ± 3%. For the same molecule, the “Apoptotic cells (%)” value [3, 5] was 48.6%, the “Apoptotic cells (%)” value [3, 6] was 58.8% and the Efficacy [4] was 90%.
With `C[C@]12CC[C@H](O)CC1=CC[C@@H]1[C@@H]2CC[C@]2(C)C(=O)CC[C@@H]12` [DHEA, 3β-hydroxy-5-androstene-17-one, reference compound] the viability at 24 h ([2]; other comparative tests, concentration not given) was 100 ± 5%, the “Apoptotic cells (%)” value [3, 5] was 51.4% and the “Apoptotic cells (%)” value [3, 6] was 39.0%.
In the case of `C[C@]12CC[C@H](O)C[C@@H]1C[C@@H](O)[C@@H]1[C@@H]2CC[C@]2(C)C(=O)CC[C@@H]12` [7α-hydroxy-ISOA, 3β,7α-dihydroxy-5α-androstan-17-one], the “Apoptotic cells (%)” value [3, 5] is reported as 46.3% and the “Apoptotic cells (%)” value [3, 6] is reported as 72.0%.
In the case of `C[C@@H]1C[C@H]2[C@@H]3CCC4=CC(=O)C=C[C@]4(C)[C@@]3(F)[C@@H](O)C[C@]2(C)[C@@]1(O)C(=O)CO` [Dexamethasone, reference compound], the “Apoptotic cells (%)” value ([3]; Dexamethasone 10^−5 M alone, thymocytes cultured 6 hours, ethanol alone 41.5) is reported as 73.5% and the “Apoptotic cells (%)” value ([3]; Dexamethasone 10^−6 M alone, thymocytes cultured 6 hours, ethanol alone 41.5) is reported as 72.7%.
